In ChEMBL document CHEMBL1135136, “Carbonic anhydrase inhibitors. Preparation of potent sulfonamides inhibitors incorporating bile acid tails” (Bioorg Med Chem Lett, 2002):

Key:
Carbonic anhydrase 1 = Carbonic anhydrase 1 (Homo sapiens, UniProt P00915)
Description: Inhibitory activity against human recombinant carbonic anhydrase I (CA1)

Carbonic anhydrase 4 = molecular target: T1, Carbonic anhydrase 4 (Bos taurus, UniProt Q95323)
T1 sequence (Q95323 whole entry): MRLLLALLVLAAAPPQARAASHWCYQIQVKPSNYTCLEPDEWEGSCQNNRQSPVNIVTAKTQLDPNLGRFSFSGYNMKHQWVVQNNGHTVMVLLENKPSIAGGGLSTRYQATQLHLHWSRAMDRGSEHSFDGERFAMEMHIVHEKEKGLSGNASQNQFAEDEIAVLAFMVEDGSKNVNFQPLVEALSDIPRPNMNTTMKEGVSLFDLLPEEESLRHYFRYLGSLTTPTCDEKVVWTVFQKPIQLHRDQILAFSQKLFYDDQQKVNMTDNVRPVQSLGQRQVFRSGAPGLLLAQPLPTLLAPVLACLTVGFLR
Description: Inhibitory activity against bovine carbonic anhydrase IV (CA4), obtained from bovine lung microsomes

Carbonic anhydrase 2 = Carbonic anhydrase 2 (Homo sapiens, UniProt P00918)
Description: Inhibitory activity against human recombinant carbonic anhydrase II (CA2)

Carbonic anhydrase 1, sequence (P00915 whole entry): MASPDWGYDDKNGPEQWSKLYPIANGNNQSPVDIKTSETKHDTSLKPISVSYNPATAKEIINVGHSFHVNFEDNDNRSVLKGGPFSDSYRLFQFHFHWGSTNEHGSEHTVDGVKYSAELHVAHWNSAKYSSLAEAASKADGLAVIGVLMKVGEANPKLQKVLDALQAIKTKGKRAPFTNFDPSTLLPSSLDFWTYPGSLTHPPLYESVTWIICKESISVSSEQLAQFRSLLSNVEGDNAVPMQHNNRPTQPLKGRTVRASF

Structure (SMILES) | Ki (Carbonic anhydrase 1) [nM] | Ki (Carbonic anhydrase 4) [nM] | Ki (Carbonic anhydrase 2) [nM]
C[C@H](CCC(=O)OCCc1ccc(S(N)(=O)=O)cc1)[C@H]1CC[C@H]2[C@@H]3CC[C@@H]4C[C@H](O)CC[C@]4(C)[C@H]3C[C@H](O)[C@]12C | 885 | 300 | 78
C[C@H](CCC(=O)NCCC(=O)Nc1nnc(S(N)(=O)=O)s1)[C@H]1CC[C@H]2[C@@H]3[C@@H](O)C[C@@H]4C[C@H](O)CC[C@]4(C)[C@H]3CC[C@]12C | 98 | 11 | 1.3
C[C@H](CCC(=O)NCCC(=O)Nc1nnc(S(N)(=O)=O)s1)[C@H]1CC[C@H]2[C@@H]3[C@H](O)C[C@@H]4C[C@H](O)CC[C@]4(C)[C@H]3C[C@H](O)[C@]12C | 250 | 31 | 1.2
C[C@H](CCC(=O)Nc1ccc(S(N)(=O)=O)cc1)[C@H]1CC[C@H]2[C@@H]3[C@H](O)C[C@@H]4C[C@H](O)CC[C@]4(C)[C@H]3C[C@H](O)[C@]12C | 21000 | 430 | 210
C[C@H](CCC(=O)Nc1ccc2nc(S(N)(=O)=O)sc2c1)[C@H]1CC[C@H]2[C@@H]3C(=O)C[C@@H]4CC(=O)CC[C@]4(C)[C@H]3CC(=O)[C@]12C | 39 | 7 | 0.8
C[C@H](CCC(=O)Nc1c(S(N)(=O)=O)cc(S(N)(=O)=O)c(Cl)c1Cl)[C@H]1CC[C@H]2[C@@H]3[C@H](O)C[C@@H]4C[C@H](O)CC[C@]4(C)[C@H]3C[C@H](O)[C@]12C | 400 | 97 | 21
C[C@H](CCC(=O)Nc1ccc(S(N)(=O)=O)cc1Cl)[C@H]1CC[C@H]2[C@@H]3[C@H](O)C[C@@H]4C[C@H](O)CC[C@]4(C)[C@H]3CC[C@]12C | 950 | 150 | 80
C[C@H](CCC(=O)OCCOc1ccc2nc(S(N)(=O)=O)sc2c1)[C@H]1CC[C@H]2[C@@H]3C(=O)C[C@@H]4CC(=O)CC[C@]4(C)[C@H]3CC(=O)[C@]12C | 30 | 6 | 0.8
C[C@H](CCC(=O)Nc1cccc(S(N)(=O)=O)c1)[C@H]1CC[C@H]2[C@@H]3C(=O)C[C@@H]4CC(=O)CC[C@]4(C)[C@H]3CC(=O)[C@]12C | 7440 | 440 | 156
C[C@H](CCC(=O)Nc1ccc(S(N)(=O)=O)cc1Cl)[C@H]1CC[C@H]2[C@@H]3CC[C@@H]4C[C@H](O)CC[C@]4(C)[C@H]3C[C@H](O)[C@]12C | 890 | 151 | 77
C[C@H](CCC(=O)Nc1cccc(S(N)(=O)=O)c1)[C@H]1CC[C@H]2[C@@H]3CC[C@@H]4C[C@H](O)CC[C@]4(C)[C@H]3CC[C@]12C | 9500 | 740 | 210
C[C@H](CCC(=O)Nc1ccc(S(N)(=O)=O)cc1Cl)[C@H]1CC[C@H]2[C@@H]3[C@@H](O)C[C@@H]4C[C@H](O)CC[C@]4(C)[C@H]3CC[C@]12C | 190 | 30 | 17
C[C@H](CCC(=O)OCCOc1ccc2nc(S(N)(=O)=O)sc2c1)[C@H]1CC[C@H]2[C@@H]3CC[C@@H]4C[C@H](O)CC[C@]4(C)[C@H]3C[C@H](O)[C@]12C | 37 | 8 | 4.1
C[C@H](CCC(=O)Nc1cccc(S(N)(=O)=O)c1)[C@H]1CC[C@H]2[C@@H]3CC[C@@H]4C[C@H](O)CC[C@]4(C)[C@H]3C[C@H](O)[C@]12C | 12700 | 980 | 230
C[C@H](CCC(=O)/N=c1\sc(S(N)(=O)=O)nn1C)[C@H]1CC[C@H]2[C@@H]3C(=O)C[C@@H]4CC(=O)CC[C@]4(C)[C@H]3CC(=O)[C@]12C | 29 | 8 | 1
C[C@H](CCC(=O)NNc1ccc(S(N)(=O)=O)cc1)[C@H]1CC[C@H]2[C@@H]3[C@@H](O)C[C@@H]4C[C@H](O)CC[C@]4(C)[C@H]3CC[C@]12C | 12000 | 615 | 240
